Data from patent US20230131402A1, “SPIRO-LACTAM NMDA RECEPTOR MODULATORS AND USES THEREOF” (Aptinyx Inc., priority 2016, published 2023).
Like-named read-outs stand apart in the source and are kept apart here.

Experiments:
[1] = Oral pharmacokinetics (plasma, brain, CSF); settings: rat, 10 mg/kg, per os; for bioavailability: % F; for AUC(0-t): AUClast
Experimental: Plasma, brain, and CSF samples were analyzed at various time points over a 24 hour period.

NMDAR2A = target: T1, NMDAR2A (Homo sapiens, UniProt Q12879); test: [3H]MK-801 binding, NMDAR2A expressing HEK cell membranes; format: biochemical; settings: for Emax: read-out: NMDAR2A A: % maximal [3H]MK-801 binding relative to 1 mM glycine
T1 construct: expressed in transfected cells; host or cells: HEK cells (membrane extract)
Experimental: (§1) Assays were conducted as described by Moskal et al., “GLYX-13: a monoclonal antibody-derived peptide that acts as an N-methyl-D-aspartate receptor modulator,” Neuropharmacology, 49, 1077-87, 2005. These studies were designed to determine if the test compounds act to facilitate NMDAR activation in NMDAR2A, NMDAR2B, NMDAR2C or NMDAR2D expressing HEK cell membranes as measured by increases in [^3H]MK-801 binding.
(§2) In the assay, 300 μg of NMDAR expressing HEK cell membrane extract protein was preincubated for 15 minutes at 25° C. in the presence of saturating concentrations of glutamate (50 μM) and varying concentrations of test compound (1×10^−15M−1×10^−7M), or 1 mM glycine. Following the addition of 0.3 μCi of [^3H]MK-801 (22.5 Ci/mmol), reactions were again incubated for 15 minutes at 25° C. (nonequilibrium conditions). Bound and free [^3H]MK-801 were separated via rapid filtration using a Brandel apparatus.
(§3) In analyzing the data, the DPM (disintegrations per minute) of [^3H]MK-801 remaining on the filter were measured for each concentration of test compound or for 1 mM glycine. The DPM values for each concentration of a ligand (N=2) were averaged. The baseline value was determined from the best fit curve of the DPM values modeled using the GraphPad program and the log(agonist) vs. response(three parameters) algorithm was then subtracted from all points in the dataset. The % maximal [^3H]MK-801 binding was then calculated relative to that of 1 mM glycine: all baseline subtracted DPM values were divided by the average value for 1 mM glycine. The EC50 and % maximal activity were then obtained from the best fit curve of the % maximal [^3H]MK-801 binding data modelled using the GraphPad program and the log(agonist) vs. response(three parameters) algorithm.
(§4) The tables below summarize the results for the wild type NMDAR agonists NMDAR2A, NMDAR2B, NMDAR2C, and NMDAR2D, and whether the compound is not an agonist (−), is an agonist (+), or is a strong agonist (++), where column A is based on the % maximal [^3H]MK-801 binding relative to 1 mM glycine (−=0; <100%=+; and >100%=++); and column B is based on log EC50 values (0=−; ≥1×10^−9M (e.g., −8)=+; and <1×10^−9M (e.g., −10)=++).

IV pharmacokinetics = format: in vivo, Sprague Dawley rats; settings: Sprague Dawley, rat, in vivo, iv, 2 mg/kg, normal saline (compounds marked * in 1% NMP and 99% normal saline); for C0: read-out: C0; for Vd: read-out: Vss
From the text: The table below summarizes the results of the IV pharmacokinetics.

[2] = test system: rats' response (reduced floating time); test: Porsolt forced swim test; format: in vivo, Sprague Dawley rats
Experimental: A non-clinical in vivo pharmacology study (Porsolt assay) was performed to measure antidepressant-like effects. A negative control (0.5% sodium carboxymethyl cellulose in 0.9% sterile saline vehicle) and a positive control (fluoxetine) are shown for comparison against test compound. The study allowed for the evaluation of the effects of each compound on the Porsolt forced swim test as assessed by the rats' response (reduced floating time) during a 5-minute swimming test.
Male 2-3 month old Sprague Dawley rats were used (Harlan, Indianapolis, Ind.). Rats were housed in Lucite cages with aspen wood chip bedding, maintained on a 12:12 light:dark cycle (lights on at 5 AM), and given ad libitum access to Purina lab chow (USA) and tap water throughout the study.
The Porsolt forced swim test adapted for use in rats was performed as described by Burgdorf et al., (The long-lasting antidepressant effects of rapastinel (GLYX-13) are associated with a metaplasticity process in the medial prefrontal cortex and hippocampus. Neuroscience 308:202-211, 2015). Animals were placed in a 46 cm tall×20 cm in diameter clear glass tube filled to 30 cm with tap water (23±1° C.) for 15 min on the first day (habituation) and 5 min on the subsequent test day. Positive control fluoxetine was dosed 3 times (24 h, 5 h and 1 h) prior to testing. Animals were tested 1 h post-dosing with the test compounds or vehicle. Animals received a 15 min habituation session 1 day before the 5 min test. A subset of compounds tested at 1 h post-dosing were retested at 1 wk post-dosing in the same sets of animals. Water was changed after every other animal. Animals were videotaped, and floating time as defined as the minimal amount of effort required to keep the animals head above water was scored offline by a blinded experimenter with high inter-rater reliability (Pearson's r>0.9).
Each compound tested at dose level shown. Significance vs. vehicle group for each experiment is marked. […] A compound marked “No” was not statistically significant from vehicle. Data was averaged for test compound and vehicle groups (N approximately 8 per group) and the percent reduction in floating for group treated with test compound relative to group treated with vehicle is shown.

NMDAR2B = target: T2, NMDAR2B (Homo sapiens, UniProt Q13224); test: [3H]MK-801 binding, NMDAR2B expressing HEK cell membranes; format: biochemical
T2 construct: expressed in transfected cells; host or cells: HEK cells (membrane extract)
Experimental: as §1, §2, §3, §4

NMDAR2D = target: T3, NMDAR2D (Homo sapiens, UniProt O15399+Q05586); test: [3H]MK-801 binding, NMDAR2D expressing HEK cell membranes; format: biochemical; settings: 50 μM glutamate; for Emax: read-out: NMDAR2D A: % maximal [3H]MK-801 binding relative to 1 mM glycine; for EC50: read-out: NMDAR2D B: log EC50 (converted)
T3 construct: expressed in transfected cells; host or cells: HEK cells (membrane extract)
Experimental: as §1, §2, §3, §4

[3] = Sprague Dawley, plasma, po, normal saline (compounds marked * in 1% NMP and 99% normal saline)
[4] = Sprague Dawley, plasma, po, Tmax, normal saline (compounds marked * in 1% NMP and 99% normal saline)
[5] = 1 wk post-dose, 0.1 mg/kg, relative to vehicle group; 0.1 mg/kg
[6] = 1 wk post-dose, 0.1 mg/kg; Yes = p<=0.05 from vehicle
[7] = 1 h post-dose, 0.1 mg/kg, relative to vehicle group; 0.1 mg/kg
[8] = 1 h post-dose, 0.1 mg/kg; Yes = p<=0.05 from vehicle
[9] = normal saline (compounds marked * in 1% NMP and 99% normal saline)
[10] = 50 μM glutamate, read-out: NMDAR2A B: log EC50 (converted)
[11] = 50 μM glutamate, read-out: NMDAR2B B: log EC50 (converted)

T2 sequence (Q13224 27-1484, species assumed, other chains not shown): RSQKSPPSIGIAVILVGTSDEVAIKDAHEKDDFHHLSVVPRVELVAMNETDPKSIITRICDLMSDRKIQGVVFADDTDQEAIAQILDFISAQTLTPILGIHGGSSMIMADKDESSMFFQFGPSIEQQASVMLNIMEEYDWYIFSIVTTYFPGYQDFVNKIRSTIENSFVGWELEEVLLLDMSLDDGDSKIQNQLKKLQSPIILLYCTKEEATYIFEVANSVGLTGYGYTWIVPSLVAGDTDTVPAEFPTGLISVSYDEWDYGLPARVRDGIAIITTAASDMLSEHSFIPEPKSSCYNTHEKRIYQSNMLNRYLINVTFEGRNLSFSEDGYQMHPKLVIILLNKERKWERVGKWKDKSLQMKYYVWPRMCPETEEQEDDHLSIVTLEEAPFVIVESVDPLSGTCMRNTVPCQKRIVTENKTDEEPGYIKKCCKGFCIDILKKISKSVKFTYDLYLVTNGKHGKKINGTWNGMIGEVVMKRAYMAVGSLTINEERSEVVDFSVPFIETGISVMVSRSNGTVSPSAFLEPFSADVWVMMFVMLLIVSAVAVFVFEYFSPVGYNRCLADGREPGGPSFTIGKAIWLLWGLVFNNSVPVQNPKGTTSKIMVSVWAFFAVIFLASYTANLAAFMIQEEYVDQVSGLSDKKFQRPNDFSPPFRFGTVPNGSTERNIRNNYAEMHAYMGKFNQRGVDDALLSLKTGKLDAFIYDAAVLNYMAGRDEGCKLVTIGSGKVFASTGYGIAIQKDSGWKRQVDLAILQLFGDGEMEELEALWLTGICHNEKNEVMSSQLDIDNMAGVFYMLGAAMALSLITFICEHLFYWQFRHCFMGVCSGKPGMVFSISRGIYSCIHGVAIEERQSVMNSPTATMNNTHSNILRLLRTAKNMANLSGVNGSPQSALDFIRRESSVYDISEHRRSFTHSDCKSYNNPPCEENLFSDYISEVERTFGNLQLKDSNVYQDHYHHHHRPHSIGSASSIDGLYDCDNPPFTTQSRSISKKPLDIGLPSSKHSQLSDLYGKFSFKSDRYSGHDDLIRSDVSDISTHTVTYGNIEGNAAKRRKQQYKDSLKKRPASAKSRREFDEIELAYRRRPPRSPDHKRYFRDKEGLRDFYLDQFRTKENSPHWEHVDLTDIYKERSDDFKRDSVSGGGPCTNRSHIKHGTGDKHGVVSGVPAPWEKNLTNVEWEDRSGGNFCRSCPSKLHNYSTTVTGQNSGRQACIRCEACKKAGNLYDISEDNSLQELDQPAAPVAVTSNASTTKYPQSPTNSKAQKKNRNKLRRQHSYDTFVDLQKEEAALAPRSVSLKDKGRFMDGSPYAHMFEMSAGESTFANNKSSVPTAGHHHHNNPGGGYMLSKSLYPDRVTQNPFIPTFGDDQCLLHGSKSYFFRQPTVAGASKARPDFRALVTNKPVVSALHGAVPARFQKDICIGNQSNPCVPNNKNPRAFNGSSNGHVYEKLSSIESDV
T3 sequence (O15399 28-1336, species assumed, other chains not shown): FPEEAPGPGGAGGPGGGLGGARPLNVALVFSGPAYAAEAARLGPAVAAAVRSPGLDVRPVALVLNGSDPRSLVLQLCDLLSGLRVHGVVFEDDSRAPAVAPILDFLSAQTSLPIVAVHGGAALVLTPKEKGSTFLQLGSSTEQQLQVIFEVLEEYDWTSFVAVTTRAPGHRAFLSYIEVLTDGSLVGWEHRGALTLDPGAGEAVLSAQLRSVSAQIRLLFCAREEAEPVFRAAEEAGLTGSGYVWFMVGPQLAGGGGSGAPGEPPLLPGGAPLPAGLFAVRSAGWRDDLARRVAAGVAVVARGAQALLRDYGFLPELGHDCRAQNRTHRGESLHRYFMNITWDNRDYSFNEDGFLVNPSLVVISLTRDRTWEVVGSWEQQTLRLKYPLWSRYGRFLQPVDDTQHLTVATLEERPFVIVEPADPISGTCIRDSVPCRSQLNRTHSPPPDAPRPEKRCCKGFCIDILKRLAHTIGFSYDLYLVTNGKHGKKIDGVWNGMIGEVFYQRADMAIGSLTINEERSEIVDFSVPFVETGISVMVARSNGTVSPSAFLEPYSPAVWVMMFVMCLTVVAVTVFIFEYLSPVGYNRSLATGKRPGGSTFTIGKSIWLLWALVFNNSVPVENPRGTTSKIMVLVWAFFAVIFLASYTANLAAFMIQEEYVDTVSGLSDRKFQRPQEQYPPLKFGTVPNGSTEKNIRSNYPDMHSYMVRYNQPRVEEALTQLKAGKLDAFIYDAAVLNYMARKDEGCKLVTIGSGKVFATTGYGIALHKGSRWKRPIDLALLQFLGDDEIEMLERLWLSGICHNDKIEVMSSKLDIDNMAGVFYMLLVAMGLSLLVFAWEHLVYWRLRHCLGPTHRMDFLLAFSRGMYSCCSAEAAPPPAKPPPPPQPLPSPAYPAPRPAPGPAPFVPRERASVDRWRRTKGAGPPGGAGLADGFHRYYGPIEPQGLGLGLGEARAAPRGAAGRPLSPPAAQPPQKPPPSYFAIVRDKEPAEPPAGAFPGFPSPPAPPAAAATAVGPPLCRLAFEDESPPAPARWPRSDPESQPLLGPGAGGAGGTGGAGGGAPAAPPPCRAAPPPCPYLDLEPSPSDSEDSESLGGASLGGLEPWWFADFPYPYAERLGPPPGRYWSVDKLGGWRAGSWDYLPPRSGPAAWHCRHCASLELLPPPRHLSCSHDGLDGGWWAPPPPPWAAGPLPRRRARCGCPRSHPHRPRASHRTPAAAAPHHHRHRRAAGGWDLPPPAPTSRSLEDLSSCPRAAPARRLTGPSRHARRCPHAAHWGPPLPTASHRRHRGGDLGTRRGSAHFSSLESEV
T1 sequence (Q12879 23-1464, species assumed, other chains not shown): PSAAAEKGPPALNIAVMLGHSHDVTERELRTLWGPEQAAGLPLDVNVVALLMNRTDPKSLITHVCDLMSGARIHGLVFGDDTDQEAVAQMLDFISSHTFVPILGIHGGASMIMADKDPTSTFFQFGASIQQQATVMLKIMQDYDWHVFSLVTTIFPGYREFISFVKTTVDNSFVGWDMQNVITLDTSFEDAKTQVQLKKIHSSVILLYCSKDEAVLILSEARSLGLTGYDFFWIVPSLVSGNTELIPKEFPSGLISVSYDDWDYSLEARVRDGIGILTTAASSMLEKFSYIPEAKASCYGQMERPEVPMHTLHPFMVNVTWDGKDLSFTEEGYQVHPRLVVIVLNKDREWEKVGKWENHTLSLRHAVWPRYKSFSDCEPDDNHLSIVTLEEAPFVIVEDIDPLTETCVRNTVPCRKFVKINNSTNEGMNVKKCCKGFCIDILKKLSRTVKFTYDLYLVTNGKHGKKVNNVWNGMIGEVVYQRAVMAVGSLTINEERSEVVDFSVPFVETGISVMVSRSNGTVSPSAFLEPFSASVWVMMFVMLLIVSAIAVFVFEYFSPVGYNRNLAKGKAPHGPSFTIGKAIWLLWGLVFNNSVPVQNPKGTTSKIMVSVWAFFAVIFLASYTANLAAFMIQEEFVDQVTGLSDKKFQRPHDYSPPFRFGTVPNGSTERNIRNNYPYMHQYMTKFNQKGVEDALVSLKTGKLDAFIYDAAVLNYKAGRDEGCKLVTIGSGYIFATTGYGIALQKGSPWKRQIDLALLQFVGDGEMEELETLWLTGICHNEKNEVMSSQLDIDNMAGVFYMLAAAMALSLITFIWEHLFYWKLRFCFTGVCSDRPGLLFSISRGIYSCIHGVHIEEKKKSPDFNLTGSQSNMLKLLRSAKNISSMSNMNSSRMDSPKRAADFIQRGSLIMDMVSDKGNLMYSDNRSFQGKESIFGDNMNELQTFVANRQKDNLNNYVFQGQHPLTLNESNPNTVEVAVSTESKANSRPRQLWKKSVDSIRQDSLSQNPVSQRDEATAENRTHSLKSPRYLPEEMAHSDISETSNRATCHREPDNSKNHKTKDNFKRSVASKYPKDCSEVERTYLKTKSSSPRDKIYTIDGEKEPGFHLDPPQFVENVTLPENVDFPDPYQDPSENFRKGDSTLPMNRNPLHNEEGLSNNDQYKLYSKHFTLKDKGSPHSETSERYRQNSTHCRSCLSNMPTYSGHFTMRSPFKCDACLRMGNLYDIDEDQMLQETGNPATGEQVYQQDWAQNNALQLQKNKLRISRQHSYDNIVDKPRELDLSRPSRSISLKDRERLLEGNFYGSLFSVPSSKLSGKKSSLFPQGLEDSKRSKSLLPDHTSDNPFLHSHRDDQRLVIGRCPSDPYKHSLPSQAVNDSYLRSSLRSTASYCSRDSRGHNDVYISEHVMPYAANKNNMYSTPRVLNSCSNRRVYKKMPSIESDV

## CN1CCN(Cc2ccccc2)C2(CCNC2=O)C1 (stereo not drawn) [ES-316]
[1]; Sprague Dawley, plasma, po
  bioavailability: 55%
[1]; [3]
  AUC(0-t): 3030 ng·h/mL
  Cmax: 2770 ng/mL
[1]; [4]
  Tmax: 0.25 h
[1]
  CSF Cmax: 430.2 ng/mL
  Brain Cmax: 1583 ng/mL
NMDAR2A; 50 μM glutamate
  NMDAR2A A: % maximal [3H]MK-801 binding relative to 1 mM glycine: + (<100%=+)
NMDAR2A; read-out: NMDAR2A B: log EC50 (converted), 50 μM glutamate
  EC50: < 1 nM
IV pharmacokinetics
  AUC(0-t): 1110 ng·h/mL
  clearance: 30.6 mL/min/kg
  half-life: 2.3 h
  C0: 2090 ng/mL
  Vd: 1.75 L/kg
[2]; [5]
  % reduction in float time: 42.4%
[2]; [6]
  Significance vs. vehicle: Yes
[2]; [7]
  % reduction in float time: 49.4%
[2]; [8]
  Significance vs. vehicle: Yes
NMDAR2B; 50 μM glutamate
  NMDAR2B A: % maximal [3H]MK-801 binding relative to 1 mM glycine: + (<100%=+)
NMDAR2B; read-out: NMDAR2B B: log EC50 (converted), 50 μM glutamate
  EC50: < 1 nM

## O=C1NCC12CNCCN2Cc1ccccc1 (single isomer, unassigned) [ED-1, 5-Benzyl-2,5,8-Triazaspiro[3.5]Nonan-1-One]
[1]; [3]
  Cmax: 2800 ng/mL
[1]
  % F: 138%
[1]; [9]
  AUClast: 7053.49 ng·h/mL
  Tmax: 0.67 h
NMDAR2D
  Emax: < 100%
  EC50: < 1 nM
NMDAR2A; 50 μM glutamate
  Emax: 0%
IV pharmacokinetics
  AUC(0-t): 1020 ng·h/mL
  clearance: 32.1 mL/min/kg
  half-life: 0.79 h
  C0: 1180 ng/mL
  Vd: 1.88 L/kg
NMDAR2B; 50 μM glutamate
  NMDAR2B A: % maximal [3H]MK-801 binding relative to 1 mM glycine: − (−=0)

## C[C@@H](O)[C@H](N)C(=O)N1CCNC2(CCNC2=O)C1 (stereo partly drawn) [ES-336]
[1]; Sprague Dawley, plasma, po
  bioavailability: 44%
[1]; [3]
  AUC(0-t): 9820 ng·h/mL
  Cmax: 2690 ng/mL
[1]; [4]
  Tmax: 1 h
[1]
  CSF Cmax: 143 ng/mL
  Brain Cmax: 32 ng/mL
NMDAR2A; 50 μM glutamate
  NMDAR2A A: % maximal [3H]MK-801 binding relative to 1 mM glycine: + (<100%=+)
NMDAR2A; [10]
  EC50: < 1 nM
IV pharmacokinetics
  AUC(0-t): 4770 ng·h/mL
  clearance: 6.84 mL/min/kg
  half-life: 13.7 h
  C0: 13700 ng/mL
  Vd: 0.73 L/kg
[2]; [5]
  % reduction in float time: 86.5%
[2]; [6]
  Significance vs. vehicle: Yes
[2]; [7]
  % reduction in float time: 81.6%
[2]; [8]
  Significance vs. vehicle: Yes
NMDAR2B; 50 μM glutamate
  NMDAR2B A: % maximal [3H]MK-801 binding relative to 1 mM glycine: + (<100%=+)
NMDAR2B; [11]
  EC50: < 1 nM

## C[C@@H](O)[C@H](N)C(=O)N1CCNC2(CNC2=O)C1 (single isomer, unassigned) [EK-1, 8-(L-Threonyl)-2,5,8-Triazaspiro[3.5]Nonan-1-One]
[1]; Sprague Dawley, plasma, po
  bioavailability: 51%
[1]; [3]
  AUC(0-t): 5740 ng·h/mL
  Cmax: 1620 ng/mL
[1]; [4]
  Tmax: 1.67 h
[1]
  CSF Cmax: 7 ng/mL
  Brain Cmax: 0 ng/mL
NMDAR2D
  Emax: < 100%
  EC50: < 1 nM
NMDAR2A; 50 μM glutamate
  NMDAR2A A: % maximal [3H]MK-801 binding relative to 1 mM glycine: + (<100%=+)
NMDAR2A; [10]
  EC50: < 1 nM
IV pharmacokinetics
  AUC(0-t): 2260 ng·h/mL
  clearance: 15 mL/min/kg
  half-life: 0.8 h
  C0: 6460 ng/mL
  Vd: 0.4 L/kg
NMDAR2B; 50 μM glutamate
  NMDAR2B A: % maximal [3H]MK-801 binding relative to 1 mM glycine: − (−=0)

## O=C1NCC12CN(Cc1ccccc1)CCN2Cc1ccccc1 (single isomer, unassigned) [EA-1, 5,8-Dibenzyl-2,5,8-Triazaspiro[3.5]Nonan-1-One]
NMDAR2D
  Emax: 0%
NMDAR2A; 50 μM glutamate
  NMDAR2A A: % maximal [3H]MK-801 binding relative to 1 mM glycine: + (<100%=+)
NMDAR2A; [10]
  EC50: < 1 nM
NMDAR2B; 50 μM glutamate
  NMDAR2B A: % maximal [3H]MK-801 binding relative to 1 mM glycine: + (<100%=+)
NMDAR2B; [11]
  EC50: < 1 nM

## C[C@@H](O)[C@H](N)C(=O)N1CCN(C(=O)OC(C)(C)C)CC12CNC2=O (single isomer, unassigned) [EC-1, Tert-Butyl 5-(L-Threonyl)-1-Oxo-2,5,8-Triazaspiro[3.5]Nonane Carboxylate]
NMDAR2D
  Emax: < 100%
  EC50: < 1 nM
NMDAR2A; 50 μM glutamate
  Emax: < 100%
NMDAR2A; [10]
  EC50: < 1 nM
NMDAR2B; 50 μM glutamate, read-out: NMDAR2B A: % maximal [3H]MK-801 binding relative to 1 mM glycine
  Emax: 0%

## CC(=O)N1CCN(Cc2ccccc2)C2(CCNC2=O)C1 (stereo not drawn) [ES-319]
[1]; Sprague Dawley, plasma, po
  bioavailability: 72%
[1]; [3]
  AUC(0-t): 6470 ng·h/mL
  Cmax: 4760 ng/mL
[1]; [4]
  Tmax: 0.33 h
[1]
  CSF Cmax: 520 ng/mL
  Brain Cmax: 758 ng/mL
NMDAR2A; 50 μM glutamate
  NMDAR2A A: % maximal [3H]MK-801 binding relative to 1 mM glycine: + (<100%=+)
NMDAR2A; [10]
  EC50: < 1 nM
IV pharmacokinetics
  AUC(0-t): 1790 ng·h/mL
  clearance: 18.2 mL/min/kg
  half-life: 4.65 h
  C0: 2770 ng/mL
  Vd: 1.74 L/kg
[2]; 1 wk post-dose, 0.1 mg/kg, relative to vehicle group
  % reduction in float time: 60.5%
[2]; [6]
  Significance vs. vehicle: Yes
[2]; 1 h post-dose, 0.1 mg/kg, relative to vehicle group
  % reduction in float time: 76.3%
[2]; [8]
  Significance vs. vehicle: Yes
NMDAR2B; 50 μM glutamate
  NMDAR2B A: % maximal [3H]MK-801 binding relative to 1 mM glycine: + (<100%=+)
NMDAR2B; [11]
  EC50: < 1 nM
